Data published in patent US11945793B1, “9-(2-hydroxypyridin-3-yl)-10[3-(dimethylamino)propyl]-3,4,6,7,9,10-hexahydroacridine-1,8(2H,5H)-dione as an antimicrobial compound” (KING FAISAL UNIVERSITY, priority 2023, dated 2024).

Experiments:
Type in all cases: cell-based
Conditions in all cases: after 10, 20, 40 and 60 minutes at all dilutions 1:100, 1:200, 1:400, 1:800
[1] = tested on: Candida albicans; assay: Antimicrobial (antifungal) screening by agar dilution, Candida albicans
Protocol: (§1) The antibacterial properties of the synthesized compound 9-(2-hydroxypyridin-3-yl)-10-[3-(dimethylamino)propyl]-3,4,6,7,9,10-hexahydroacridine-1,8(2H,5H)-dione were studied by the method of agar dilution. Test solutions of each compound was prepared in concentration of 1% using dimethylformamide as a solvent then they are diluted in physiological solution to obtain the final experimental dilutions 1:100, 1:200, 1:400, 1:800. The effect of these substances are compared with furacillin in a controllable study. The testing microbes used were gram positive bacteria Staphylococcus aureus, gram negative bacteria Pseudomonas aeruginosa and Escherichia coli and Candida albicans fungus. The experiments used for this survey were meat-pentonlu agar (EPA) for cultivation of bacteria and Saburo environment for the fungus. Each experiment used 1 mL of test solution on each plate […]. Two drops of emulsified with microbes feel were added. All experimental samples were taken from the agar after 10, 20, 40, 60 minutes in the environment on the basis of Patrk planted. The bacteria were cultivated at a temperature of 37° C. for 1 day and the mushroom was kept in a thermostat for […] at a temperature of 28° C. Then results were checked.

[2] = tested on: Escherichia coli; assay: Antimicrobial screening by agar dilution, E. coli
Protocol: as §1

[3] = tested on: Staphylococcus aureus; assay: Antimicrobial screening by agar dilution, St. aureus
Protocol: as §1

[4] = tested on: Pseudomonas aeruginosa; assay: Antimicrobial screening by agar dilution, Ps. aeruginosa
Protocol: as §1

Measured: inhibition activity (in words)

CN(C)CCCN1C2=C(C(=O)CCC2)C(c2cccnc2O)C2=C1CCCC2=O [9-(2-hydroxypyridin-3-yl)-10-[3-(dimethylamino)propyl]-3,4,6,7,9,10-hexahydroacridine-1,8(2H,5H)-dione]
highest inhibition activity: all assays above
